{"source": "ChEMBL document CHEMBL2057176", "about": "“Synthesis and in vitro evaluation of [18F](R)-FEPAQ: a potential PET ligand for VEGFR2” (Bioorg Med Chem Lett, 2012)", "key": {"[1]": {"target": "T1, Vascular endothelial growth factor receptor 2 (Homo sapiens, UniProt P35968)", "T1 sequence (P35968 whole entry)": "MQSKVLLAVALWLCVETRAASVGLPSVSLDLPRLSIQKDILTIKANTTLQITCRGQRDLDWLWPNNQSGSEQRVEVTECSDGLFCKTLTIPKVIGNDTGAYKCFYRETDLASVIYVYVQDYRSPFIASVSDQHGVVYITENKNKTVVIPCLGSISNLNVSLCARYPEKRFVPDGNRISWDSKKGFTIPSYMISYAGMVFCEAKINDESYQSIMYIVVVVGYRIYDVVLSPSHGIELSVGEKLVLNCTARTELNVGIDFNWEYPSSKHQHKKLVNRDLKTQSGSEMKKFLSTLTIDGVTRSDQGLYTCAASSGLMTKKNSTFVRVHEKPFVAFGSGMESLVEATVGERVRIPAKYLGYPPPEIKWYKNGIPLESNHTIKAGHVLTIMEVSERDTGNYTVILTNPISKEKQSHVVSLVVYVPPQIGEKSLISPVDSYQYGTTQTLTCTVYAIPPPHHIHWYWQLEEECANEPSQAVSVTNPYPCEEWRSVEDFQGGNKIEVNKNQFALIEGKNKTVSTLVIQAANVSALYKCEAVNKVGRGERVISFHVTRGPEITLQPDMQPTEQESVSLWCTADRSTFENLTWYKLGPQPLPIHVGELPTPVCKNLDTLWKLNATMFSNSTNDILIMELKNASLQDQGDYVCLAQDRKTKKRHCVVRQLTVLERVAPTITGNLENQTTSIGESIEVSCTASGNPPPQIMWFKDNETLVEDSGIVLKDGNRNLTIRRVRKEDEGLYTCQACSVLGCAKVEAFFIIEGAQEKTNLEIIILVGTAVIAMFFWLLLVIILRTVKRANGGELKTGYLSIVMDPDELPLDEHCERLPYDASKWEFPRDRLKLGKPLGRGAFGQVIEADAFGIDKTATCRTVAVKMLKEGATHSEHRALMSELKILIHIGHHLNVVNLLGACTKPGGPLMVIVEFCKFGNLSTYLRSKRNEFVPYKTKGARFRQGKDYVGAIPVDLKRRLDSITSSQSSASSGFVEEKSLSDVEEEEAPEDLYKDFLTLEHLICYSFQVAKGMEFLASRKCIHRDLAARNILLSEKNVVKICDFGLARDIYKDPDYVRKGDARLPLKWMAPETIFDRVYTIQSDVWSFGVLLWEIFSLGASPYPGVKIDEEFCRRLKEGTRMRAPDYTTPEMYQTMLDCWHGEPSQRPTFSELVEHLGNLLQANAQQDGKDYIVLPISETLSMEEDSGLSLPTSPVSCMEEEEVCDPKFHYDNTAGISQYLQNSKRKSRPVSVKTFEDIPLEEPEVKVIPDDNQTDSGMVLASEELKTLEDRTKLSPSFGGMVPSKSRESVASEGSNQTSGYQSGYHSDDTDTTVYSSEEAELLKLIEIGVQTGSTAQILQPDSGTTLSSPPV", "assay": "Inhibition of human VEGFR2 by fluorescence-based electrophoretic mobility-shift assay"}, "[2]": {"target": "T1, Vascular endothelial growth factor receptor 2", "assay": "Binding affinity to VEGFR2 in isolated human glioblastoma at 0.18 nM after 60 mins by phosphor image autoradiographic analysis", "conditions": "tested as the 18F-labelled form"}, "[3]": {"target": "T1, Vascular endothelial growth factor receptor 2", "assay": "Binding affinity to VEGFR2 in isolated human glioblastoma at 0.18 nM after 60 mins by phosphor image autoradiographic analysis in presence of ZM-323881", "conditions": "tested as the 18F-labelled form"}, "[4]": {"target": "T1, Vascular endothelial growth factor receptor 2", "assay": "Binding affinity to VEGFR2 in isolated human glioblastoma at 0.18 nM after 60 mins by phosphor image autoradiographic analysis in presence of (R)-PAQ", "conditions": "tested as the 18F-labelled form"}}, "note": "Activity calls are given as the source filed them. No cut-off for these calls is given here.", "data": [{"smiles": "COc1cc2c(Nc3ccc(Br)cc3F)ncnc2cc1OC[C@@H]1CCCN(CCF)C1", "values": [{"measurement": "IC50", "setting": "[1]", "result": 0.04, "unit": "µM"}, {"measurement": "Activity", "setting": "[2]", "result": "Active"}, {"measurement": "Activity", "setting": "[3]", "result": "inactive"}, {"measurement": "Activity", "setting": "[4]", "result": "inactive"}]}]}
